Source: patent US12295997B2, “Prostate neoantigens and their uses” (Janssen Biotech, Inc., priority 2020, dated 2025)

Tests used:
[1] = test system: CD8+ T cells in PBMCs from human patients with metastatic castrate-resistant prostate cancer; test: Patient PBMC restimulation assay (in vitro immunogenicity, TNFα/IFNγ intracellular flow cytometry); type: cell-based; conditions: 9-mer peptide; for Maximum fold change over negative control: TNFα+IFNγ+CD8+ T cells, highest across PBMC donors evaluated; for Maximum frequency of TNFα^+IFNγ^+CD8^+ T cells (Percent): greatest frequency among all tested PBMC donors; for Immunogenic: patient PBMC restimulation
Description: PBMCs from human patients with metastatic castrate-resistant prostate cancer were thawed using media (RPMI 1640 supplemented with Glutamax, 10% HI FBS, and 1× Sodium Pyruvate). Cells were counted and plated in a 96 well round bottom microplate at a concentration of 250,000 viable cells per well. Lyophilized peptides were solubilized in 100% DMSO and diluted in media to 10 μg/mL. Neoantigen peptides were added in equal volume to PBMCs for a final concentration of 5 μg/mL. CEF Peptide Pool “Plus” (Cellular Technologies, Ltd.) was utilized as a positive control and DMSO at the same final concentration as the experimental peptides was utilized as a negative control. Human IL-15 (Peprotech) was added to all wells at final concentration of 10 ng/mL.
Plates were incubated at 37° C. (5% CO2) for a total of 13 days. Media was refreshed every 2 days with IL-15 (10 ng/mL final concentration) and IL-2 (R&D systems, 10 IU/mL final concentration). On day 12, PBMCs were re-stimulated with identical experimental peptides or controls, at same concentration as peptide stimulation on Day 1. After 1-hour incubation, protein Inhibitor Cocktail (eBioscience) was added to every well and plate was incubated overnight.
On day 13, cells were stained for intracellular flow cytometry analysis. The cells were washed with PBS and stained with Live/Dead Fixable Aqua Dead Cell stain (Thermo-Fisher). Following the live/dead stain, cells were blocked using Biotin-Free Fc Receptor Blocker (Accurate Chemical & Scientific Corp). Extracellular cellular flow panel ([…] per well in 50 μL) consisted of CD3 PerCP-Cy5.5 (Biolegend), CD4 BV421 (Biolegend), and CD8 APC-Cy7 (Biolegend). After extracellular staining, cells were fixed using Foxp3/fTranscription Factor Staining Buffer Set (eBioscience) and stained for intracellular proteins (1:50 dilution) using TNFα FITC (R&D Systems) and IFNγ BV785 (Biolegend). Cells were washed and resuspended in stain buffer and analyzed using a BD Celesta flow cytometer.
Flow cytometry cell staining analysis was completed using FlowJo v10. Cells were gated on live, singlet, CD3+ cells. The CD8+ T cells were analyzed for TNFα/IFNγ expression and the frequency of double positive TNFα/IFNγ CD8+ T cells was recorded. Responses were assessed to be positive when the frequency of double positive TNFα/IFNγ CD8+ T cells due to stimulation with an experimental peptide was increased greater than or equal to 2-fold over the DMSO only negative control for that patient. Peptides were analyzed in 1 to 7 patient samples.
The 9 mer fragments shown in Table 13 were assessed for their ability to activate T cells using the Patient PBMC restimulation assay described in Example 1 using TNFα and IFNγ production by CD8^+ T cells as a readout. Self-antigens shown in Table 15 were also used in the assays. […] PBMCs from ten patients were evaluated.

HLA-A*03:01 = HLA-A*03:01 (Homo sapiens, UniProt P04439); test: In vitro binding of neoantigens to class I MHC (UV peptide exchange, HLA class I ELISA); conditions: 100% = same binding as positive control peptide
Description: The 9 mer peptides identified by bioinformatics analysis were analyzed for their binding propensities to 6 common HLA class I alleles (HLA-A*01:01, A*02:01, A*03:01, A*24:02, B*07:02, B*08:01). The principle of the method is briefly described below and consists of two parts, one involving exchange of peptide with a positive control induced by Ultraviolet (UV) radiation, and the second is an enzyme immunoassay to detect stable HLA-peptide and empty HLA complexes.
HLA-bound peptides are critical for the stability of the HLA complex. A conditional HLA class I complex was stabilized by an UV-labile peptide utilizing a different peptide (Pos) for each HLA (Pos: HLA-A*01:01: […](SEQ ID NO: 409), HLA-A*02:01: […] (SEQ ID NO: 410), HLA-A*03:01: […] (SEQ ID NO: 411), HLA-A*24:02: […] (SEQ ID NO: 412), HLA-B*07:02: […] (SEQ ID NO: 413), HLA-B*08:01: […] (SEQ ID NO: 414), which could be cleaved by UV irradiation when bound to the HLA molecule. Upon cleavage, the resulting peptide fragments dissociated from the HLA class I complex since their length was insufficient to bind stably to HLA. Under the conditions in which peptide cleavage was performed (neutral pH, on melting ice), the peptide-free HLA complex remained stable.
The exchange efficiency between the peptide of interest and Pos was analyzed using an HLA class I ELISA. The combined technologies allowed the identification of ligands for an HLA molecule of interest which are potentially immunogenic.
Exchange control peptide Pos was a high affinity binder to the relevant HLA class I allele while exchange control peptide Neg was a non-binder. The UV control represented UV-irradiation of conditional HLA class I complex in the absence of a rescue peptide.
The HLA class I ELISA is an enzyme immunoassay based on the detection of beta2-microglobulin (B2M) of (peptide-stabilized) HLA class I complexes. To this end streptavidin was bound onto polystyrene microtiter wells. After washing and blocking, HLA complex present in exchange reaction mixtures or ELISA controls was captured by the streptavidin on the microtiter plate via its biotinylated heavy chain. Non-bound material was removed by washing. Subsequently, horseradish peroxidase (HRP)-conjugated antibody to human B2M was added. The HRP-conjugated antibody binds only to an intact HLA complex present in the microtiter well because unsuccessful peptide exchange results in disintegration of the original UV-sensitive HLA complex upon UV illumination. In the latter case B2M was removed during the washing step. After removal of non-bound HRP conjugate by washing, a substrate solution was added to the wells. A coloured product formed in proportion to the amount of intact HLA complex present in the samples. After the reaction was terminated by the addition of a stop solution, absorbance was measured in a microtiter plate reader. The absorbance was normalized to the absorbance of an exchange control peptide (represents 100%). Suboptimal HLA binding of peptides with a moderate to low affinity for HLA class I molecules can also be detected by this ELISA technique (Rodenko, B et al. (2006) Nature Protocols 1: 1120-32).
Peptides that had 10% or greater exchange efficiency in one of the 6 HLA alleles were considered for further immunogenicity testing and analysis.
Binding of select neoepitopes to HLA-A*01:01, HLA-A*02:01, HLA-A*03:01, HLAA*24:02, HLAAB*07:02 and HLA-B*08:01 was evaluated using the assay described in Example 1. […] As a criterion for further evaluation, peptides with an exchange rate of at least 10% with the corresponding Pos peptide for at least one of the 6 HLA alleles that we considered for further evaluation. The exchange rates with the allele specific Pos peptides, of the 24 neoantigens so identified are summarized below in Table 17. Higher percentages correspond to stronger binding to the HLA allele.

Molecule: P73 (DSSGNLLERNSFEVRV; listed as Homo sapiens) [Peptide P73]
- Maximum fold change over negative control [1]: 2.97
- Maximum frequency of TNFα^+IFNγ^+CD8^+ T cells (Percent) [1]: 0.110%
- Immunogenic [1]: Yes
- Exchange rate with allele specific Pos peptide, HLA-A*03:01 (HLA-A*03:01): 3.5%

Molecule: YEAGMTLGGKILFFLFLLLPLSPFSLIF (listed as Homo sapiens) [Neoantigen P87]
- Maximum fold change over negative control [1]: 3.24
- Maximum frequency of TNFα^+IFNγ^+CD8^+ T cells (Percent) [1]: 0.120%
- Immunogenic [1]: Yes
- Exchange rate with allele specific Pos peptide, HLA-A*03:01 (HLA-A*03:01): 2.4%

Molecule: P56 (PKSEVRAKCKFSILNAK; listed as Homo sapiens) [Peptide P56]
- Maximum fold change over negative control [1]: 11.57
- Maximum frequency of TNFα^+IFNγ^+CD8^+ T cells (Percent) [1]: 1.620%
- Immunogenic [1]: Yes
- Exchange rate with allele specific Pos peptide, HLA-A*03:01 (HLA-A*03:01): 6.8%

Molecule: YEAGMTLGEKFRVGNCKHLKMTRP (listed as Homo sapiens) [Neoantigen P82]
- Maximum fold change over negative control [1]: 3.46
- Maximum frequency of TNFα^+IFNγ^+CD8^+ T cells (Percent) [1]: 0.970%
- Immunogenic [1]: Yes
- Exchange rate with allele specific Pos peptide, HLA-A*03:01 (HLA-A*03:01): 58.1%

Molecule: P46 (DDRNTFDIVWWCPMSRLRLALTVPPSTTTTCVTVPAWAA; listed as Homo sapiens) [Peptide P46]
- Maximum fold change over negative control [1]: 2.33
- Maximum frequency of TNFα^+IFNγ^+CD8^+ T cells (Percent) [1]: 0.140%
- Immunogenic [1]: Yes
- Exchange rate with allele specific Pos peptide, HLA-A*03:01 (HLA-A*03:01): 10.3%

Molecule: P60 (CYLRRQKRLKCEKQPGA; listed as Homo sapiens) [Peptide P60]
- Maximum fold change over negative control [1]: 2.08
- Maximum frequency of TNFα^+IFNγ^+CD8^+ T cells (Percent) [1]: 0.340%
- Immunogenic [1]: Yes
- Exchange rate with allele specific Pos peptide, HLA-A*03:01 (HLA-A*03:01): 36.6%

Molecule: P58 (MMAEIISVHVPKILSGK; listed as Homo sapiens) [Peptide P58]
- Maximum frequency of TNFα^+IFNγ^+CD8^+ T cells (Percent) [1]: 5.370%
- Immunogenic [1]: Yes
- Exchange rate with allele specific Pos peptide, HLA-A*03:01 (HLA-A*03:01): 32.5%

Molecule: P61 (MFENGCYLGRQKRFKCE; listed as Homo sapiens) [Peptide P61]
- Maximum frequency of TNFα^+IFNγ^+CD8^+ T cells (Percent) [1]: 0.084%
- Immunogenic [1]: Yes
- Exchange rate with allele specific Pos peptide, HLA-A*03:01 (HLA-A*03:01): 2.1%

Molecule: P98: neoantigen 9 mer fragment used for PBMC stimulation (FIG. 5D) (IVWWCPMSR; listed as Homo sapiens) [Neoantigen P98]
- Maximum fold change over negative control [1]: 14.93
- Maximum frequency of TNFα^+IFNγ^+CD8^+ T cells (Percent) [1]: 1.000%
- Immunogenic [1]: Yes
- Exchange rate with allele specific Pos peptide, HLA-A*03:01 (HLA-A*03:01): 51.1%

Molecule: P97 (GYLRMQGLMAQRLLLR; listed as Homo sapiens) [Peptide P97]
- Maximum fold change over negative control [1]: 4.55
- Maximum frequency of TNFα^+IFNγ^+CD8^+ T cells (Percent) [1]: 0.160%
- Immunogenic [1]: Yes
- Exchange rate with allele specific Pos peptide, HLA-A*03:01 (HLA-A*03:01): 39%

Molecule: SLYHREKQLIAMDSAI (listed as Homo sapiens) [Neoantigen P22]
- Maximum frequency of TNFα^+IFNγ^+CD8^+ T cells (Percent) [1]: 0.120%
- Immunogenic [1]: Yes
- Exchange rate with allele specific Pos peptide, HLA-A*03:01 (HLA-A*03:01): 4.8%

B1: P19 (peptide, listed as Homo sapiens)
chain: WTPIPVLTRWPLPHPPPWRRATSCRMARSSPSATSGSSVRRRCSSLPSWVWNLAASTRPRSTPS
- Maximum fold change over negative control [1]: 5.00
- Maximum frequency of TNFα^+IFNγ^+CD8^+ T cells (Percent) [1]: 0.480%
- Immunogenic [1]: Yes
- Exchange rate with allele specific Pos peptide, HLA-A*03:01 (HLA-A*03:01): 4.1%
